Source: patent US6492395B1, “Topical formulation of alkyl-, phenyl-pyridone” (Mepha AG, priority 2001, dated 2002)

Test: Stability test, 6 months storage under standard storage conditions
Assay type: physicochemical
Method: Stability testing was carried out as above.

- effect on physical stability of emulsions and other colloidal systems: emulsion destabiliser
Compound: Cc1ccc(=O)n(-c2ccccc2)c1 [5-methyl-1-phenyl-2-(1H)-pyridone]
